Article PMC9146695, “Globularia alypum L. and Related Species: LC-MS Profiles and Antidiabetic, Antioxidant, Anti-Inflammatory, Antibacterial and Anticancer Potential” (Pharmaceuticals, 2022)
≈ marks a conversion by molar mass, not a printed value. Where two headings read alike, the source gives them in different places.

Tests used:
[1] = DPPH radical scavenging activity assay; details: methanolic aerial parts extracts (Soxhlet); 30 min
Method: Antiradical activity was assessed using the free radical 2,2-diphenyl-1-picrylhydrazyl (DPPH) according to the previously described procedure. Methanolic stock solution of DPPH (0.1 mM) was dissolved to obtain absorbance of 0.70 ± 0.02. In 2 mL of prepared solution, 10 µL sample was added. After 30 min incubation, absorbance was measured at 517 nm with methanol used as blank. Results are expressed as concentrations observed to reduce the DPPH radical absorbance by 50% (IC50).

[2] = test system: CAMA-1 breast cancer cells; design: method as in doi:10.4314/tjpr.v17i9.4; details: cited from earlier work
B. subtilis = test system: B. subtilis; design: method as in PMID 31737673; details: same ATCC strain as in the present study; cited from earlier work
E. faecalis = details: cited from earlier work
S. aureus = details: cited from earlier work
P. aeruginosa = details: cited from earlier work
[3] = test system: B. subtilis, B. cereus and S. aureus; design: method as in earlier work; details: cited from earlier work
α-glucosidase = details: cited from earlier work
[4] = cited from earlier work
[5] = test system: Bacillus cereus ATCC 11778; experiment: Well diffusion method; assay type: cell-based; details: aerial parts extracts c = 50 mg/mL; antibiotics c = 0.2 mg/mL; n.d. = growth inhibition not detected
Method: (§1) Antibacterial activity was evaluated using the following strains: Bacillus cereus American Type Culture Collection (ATCC, Manassas, VA, USA) 11778, B. subtilis ATCC 6633, Enterococcus faecalis ATCC 29212, Staphylococcus aureus ATCC 6538 and S. aureus ATCC 29213 among Gram-positive and Escherichia coli ATCC 10536, Klebsiella pneumoniae MFBF 10402 and Pseudomonas aeruginosa ATCC 27853 among Gram-negative bacterial species. Additionally, eight clinical isolates of S. aureus, including methicillin-resistant S. aureus (MRSA MFB F101, MRSA MFBF 124, MRSA MFBF 154, MRSA MFBF 164, and MRSA MFBF 177) and methicillin susceptible S. aureus (S. aureus MFBF 505, S. aureus MFBF 10661 and S. aureus MFBF 10666) were used. Bacterial strains were sourced from the Collection of Microorganisms, Department of Microbiology, Faculty of Pharmacy and Biochemistry, University of Zagreb. Inoculums were prepared from overnight cultures that were cultured on tryptic soy agar (TSA) at 37 °C, suspended in sterile physiological saline, with the optic density adjusted to 0.5 McFarland (1.5 × 10^8 colony-forming units (CFUs)/mL) using a densitometer (Densimat, BioMérieux, Marcy-l’Étoile, France). Right before cultivation in nutrient medium, 1 mL of each prepared suspension was dissolved with 9 mL physiological saline. Prior to cell treatment, sample stock solutions in distilled water (c = 50 mg/mL) were filtered through Chromafil cellulose acetate filters of pore size 0.22 μm (Macherey-Nagel, Düren, Germany).
(§2) Well diffusion method was carried out according to the European Pharmacopoeia. Inoculums (100 μL) were transferred to individual petri dishes with 4 mm thick Müller–Hinton agar and equally distributed across agar surface with a glass L-stick. Wells were prepared using sterile stainless-steel cylinders (d = 6 mm) and filled with 50 μL of methanolic aerial parts extract solution (c = 50 mg/mL) in distilled water. Plates were incubated at 37 °C for 18 h in the dark. Diameters of the zones of inhibition of bacterial growth (mm) were read from the diameters of transparent zones around the wells. Gentamicin and norfloxacin (c = 0.2 mg/mL) were used as positive controls.

[6] = test system: Enterococcus faecalis ATCC 29212; experiment: Well diffusion method; assay type: cell-based; details: aerial parts extracts c = 50 mg/mL; antibiotics c = 0.2 mg/mL; n.d. = growth inhibition not detected
Method: as §1, §2

[7] = test system: Staphylococcus aureus ATCC 6538; experiment: Well diffusion method; assay type: cell-based; details: aerial parts extracts c = 50 mg/mL; antibiotics c = 0.2 mg/mL
Method: as §1, §2

[8] = test system: Escherichia coli ATCC 10536; experiment: Well diffusion method; assay type: cell-based; details: aerial parts extracts c = 50 mg/mL; antibiotics c = 0.2 mg/mL; n.d. = growth inhibition not detected
Method: as §1, §2

[9] = test system: Bacillus subtilis ATCC 6633; experiment: Well diffusion method; assay type: cell-based; details: aerial parts extracts c = 50 mg/mL; antibiotics c = 0.2 mg/mL; n.d. = growth inhibition not detected
Method: as §1, §2

[10] = test system: Pseudomonas aeruginosa ATCC 27853; experiment: Well diffusion method; assay type: cell-based; details: aerial parts extracts c = 50 mg/mL; antibiotics c = 0.2 mg/mL; n.d. = growth inhibition not detected
Method: as §1, §2

[11] = test system: Klebsiella pneumoniae MFBF 10402; experiment: Well diffusion method; assay type: cell-based; details: aerial parts extracts c = 50 mg/mL; antibiotics c = 0.2 mg/mL; n.d. = growth inhibition not detected
Method: as §1, §2

[12] = test system: S. aureus strains (MSSA and MRSA); experiment: Serial broth microdilution, S. aureus strains taken together; assay type: cell-based; details: Staphylococcus aureus; reference standard; read-out: MIC, anti-staphylococcal activity
five MRSA strains = test system: five MRSA strains; design: method as in PMID 18404351; details: cited from earlier work
[13] = test system: Staphylococcus aureus ATCC 6538; experiment: Serial broth microdilution with agar sub-cultivation; assay type: cell-based; details: ATCC6538, aerial parts extracts, TTC detection
COX-2 = test system: COX-2; design: method as in PMID 11849848; details: cited from earlier work
[14] = test system: Staphylococcus aureus ATCC 29213; experiment: Serial broth microdilution with agar sub-cultivation; assay type: cell-based
[15] = test system: Pseudomonas aeruginosa ATCC 27853; experiment: as above; assay type: cell-based; details: ATCC27853, aerial parts extracts, TTC detection, n.d. = growth inhibition not detected (0.36–22.73 mg/mL)
E. coli = test system: E. coli; design: method as in doi:10.1016/j.sajb.2010.04.010; details: range given for both compounds; cited from earlier work
MDA-MB-231 = test system: MDA-MB-231; design: method as in PMID 34719192; details: cited from earlier work
COX-1 = test system: COX-1; design: method as in PMID 11849848; details: cited from earlier work
[16] = test system: Escherichia coli ATCC 10536; experiment: Serial broth microdilution with agar sub-cultivation; assay type: cell-based; details: ATCC10536, aerial parts extracts, TTC detection, n.d. = growth inhibition not detected (0.18–11.36 mg/mL)
HL60 cells = details: cited from earlier work
[17] = test system: YMB-1 breast cancer cells; details: cited from earlier work
KB cells = details: cited from earlier work
[18] = test system: HT-29 human colon adenocarcinoma cells; design: method as in doi:10.1007/s00044-015-1500-z; details: cited from earlier work
[19] = same ATCC strain as in the present study
[20] = compounds from Origanum majorana leaves
[21] = constituents of G. alypum and standards, read-out: DPPH radical scavenging IC50
[22] = isolated compounds of Clerodendrum bungei

Cc1c(C)c2c(c(C)c1O)CCC(C)(C(=O)O)O2 (centres unmarked) [Trolox]
DPPH radical scavenging activity IC50 [1]: 2.71 µg/mL

O=C(OCC1=CC(O)C2(O)C=COC(O[C@@H]3O[C@H](CO)[C@@H](O)[C@H](O)[C@H]3O)C12)c1ccccc1 (some centres unmarked) [Globularifolin, Globularifolin (10-O-Benzoylmonomelittoside)]
IC50 [2]: 10 µM

O=c1cc(-c2ccc(O)cc2)oc2cc(O)cc(O)c12 [apigenin, Apigenin]
MIC against B. subtilis (B. subtilis): 8 µg/mL (≈ 29.6 µM) | MIC against E. faecalis (E. faecalis; [19]): 8 µg/mL (≈ 29.6 µM) | inhibitory activity against S. aureus (S. aureus): no inhibitory activity was observed | MIC against P. aeruginosa (P. aeruginosa; [19]): 64 to 400 µg/mL | MIC against B. subtilis, B. cereus and S. aureus [3]: 30 to 80 µg/mL | IC50 (α-glucosidase; [20]): > 500 µM

O=c1c(O)c(-c2ccc(O)c(O)c2)oc2cc(O)cc(O)c12 [quercetin]
IC50 [4, 21]: 7.8 µM

O=C(/C=C/c1ccc(O)c(O)c1)O[C@H]1[C@H](O)[C@@H](O)[C@H](OCCc2ccc(O)c(O)c2)O[C@@H]1CO [calceolarioside A, Calceolarioside A (Desrhamnosyl verbascoside)]
IC50 ([4]; read-out: DPPH IC50): 22.9 µM

O=c1cc(-c2ccc(O)c(O)c2)oc2cc(O[C@@H]3O[C@H](CO)[C@@H](O)[C@H](O)[C@H]3O)cc(O)c12 [luteolin 7-O-glucoside]
MIC against B. subtilis, B. cereus and S. aureus [3]: 50 to 90 µg/mL

Cc1cc(C(C)(C)C)c(O)c(C(C)(C)C)c1 [butylated hydroxytoluene]
IC50 [4, 21]: 30 µM

O=c1cc(-c2ccc(O)c(O)c2)oc2cc(O)cc(O)c12 [luteolin]
IC50 (α-glucosidase; [20]): > 500 µM

OCCc1ccc(O)c(O)c1 [hydroxytyrosyl moiety]
IC50 (α-glucosidase): 150 µM

COc1cc(/C=C/C(=O)O[C@H]2[C@H](O[C@@H]3O[C@@H](C)[C@H](O)[C@@H](O)[C@H]3O)[C@@H](O)[C@H](OCCc3ccc(O)c(O)c3)O[C@@H]2CO)ccc1O [leucosceptoside A, Leucosceptoside A]
IC50 (α-glucosidase; [22]): 700 µM

O=C(O)c1cc(O)c(O)c(O)c1 [Gallic Acid, gallic acid]
DPPH radical scavenging activity IC50 [1]: 0.64 µg/mL

CCn1cc(C(=O)O)c(=O)c2cc(F)c(N3CCNCC3)cc21 [Norfloxacin, norfloxacin]
growth inhibition zone [5]: 26.6 ± 0.9 mm | growth inhibition zone [6]: 23.8 ± 0.8 mm | growth inhibition zone [7]: 33.8 ± 0.8 mm | growth inhibition zone [8]: 44.7 ± 1.0 mm | growth inhibition zone [9]: 41.0 ± 0.0 mm | growth inhibition zone [10]: 30.7 ± 2.8 mm | growth inhibition zone [11]: 7.3 ± 0.5 mm

C[C@@H]1O[C@@H](O[C@@H]2[C@@H](O)[C@H](OCCc3ccc(O)c(O)c3)O[C@H](CO)[C@H]2OC(=O)/C=C/c2ccc(O)c(O)c2)[C@H](O)[C@H](O)[C@H]1O [Verbascoside, Verbascoside (Acteoside)]
MIC [12]: 227 µg/mL (≈ 364 µM) | MIC against E. faecalis (E. faecalis; range given for both compounds): 100 to 150 µg/mL | MIC, anti-staphylococcal activity (S. aureus): 60 µg/mL (≈ 96.1 µM) | MIC against five MRSA strains (five MRSA strains): 64 to 256 µg/mL | MIC against P. aeruginosa (P. aeruginosa; given for both compounds): 250 µg/mL (≈ 400 µM) | MIC [13]: 227 µg/mL (≈ 364 µM) | IC50 (COX-2): 690 µM | IC50 (α-glucosidase; [22]): 500 µM | IC50 ([4]; read-out: DPPH radical scavenging capacity IC50): 58.1 µM | MIC ([14]; ATCC29213, aerial parts extracts, TTC detection): 227 µg/mL (≈ 364 µM) | MBC ([14]; ATCC29213, agar sub-cultivation): 227 µg/mL (≈ 364 µM) | MIC [15]: 227 µg/mL (≈ 364 µM) | MIC against E. coli (E. coli): 100 to 250 µg/mL | IC50 (MDA-MB-231): 0.159 to 0.258 µM | IC50 (COX-1): > 1000 µM | MIC [16]: 227 µg/mL (≈ 364 µM)

O=c1cc(-c2ccc(O)cc2)oc2cc(O)c(O)c(O)c12 [6-hydroxyapigenin, 6-hydroxyapigenin (scutellarein)]
IC50 (α-glucosidase; [20]): 12 µM

O=C(/C=C/c1ccc(O)c(O)c1)OC[C@H]1O[C@@H](OCCc2ccc(O)c(O)c2)[C@H](O)[C@@H](O)[C@@H]1O [calceolarioside B, Calceolarioside B (Desrhamnosyl isoverbascoside)]
IC50 ([4]; read-out: DPPH IC50): 26.2 µM

C[C@@H]1O[C@@H](O[C@@H]2[C@@H](O)[C@H](OCCc3ccc(O)c(O)c3)O[C@H](COC(=O)/C=C/c3ccc(O)c(O)c3)[C@H]2O)[C@H](O)[C@H](O)[C@H]1O [isoverbascoside, Isoverbascoside (Isoacteoside)]
MIC against E. faecalis (E. faecalis; range given for both compounds): 100 to 150 µg/mL | MIC, anti-staphylococcal activity (S. aureus): 130 µg/mL (≈ 208 µM) | MIC against P. aeruginosa (P. aeruginosa; given for both compounds): 250 µg/mL (≈ 400 µM) | IC50 (α-glucosidase; [22]): 100 µM | MIC against E. coli (E. coli): 100 to 250 µg/mL

O=c1cc(-c2ccc(O)cc2)oc2c([C@@H]3O[C@H](CO)[C@@H](O)[C@H](O)[C@H]3O)c(O)c([C@@H]3O[C@H](CO)[C@@H](O)[C@H](O)[C@H]3O)c(O)c12 [vicenin-2, Vicenin-2 (Apigenin-6,8-di-C-glucoside)]
IC50 (α-glucosidase): 271 µM

CC(=O)OCC1=C[C@@H]2OC(=O)C3=CO[C@@H](O[C@@H]4O[C@H](CO)[C@@H](O)[C@H](O)[C@H]4O)[C@H]1[C@@H]32 [asperuloside, Asperuloside]
IC50 HL60 cells (HL60 cells): 11.0 µg/mL (≈ 26.5 µM) | IC50 YMB-1 breast cancer cells [17]: 0.7 µg/mL (≈ 1.69 µM) | IC50 KB cells (KB cells): 104.2 µg/mL (≈ 251 µM)

O=c1cc(-c2ccc(O)c(O)c2)oc2cc(O[C@@H]3O[C@H](CO)[C@@H](O)[C@H](O)[C@H]3O)c(O)c(O)c12 [6-hydroxyluteolin 7-O-glucoside, 6-Hydroxyluteolin 7-O-glucoside]
IC50 (α-glucosidase; [20]): 300 µM

CC(=O)OCC1=C[C@H](O)[C@@H]2C(C(=O)O)=CO[C@@H](O[C@@H]3O[C@H](CO)[C@@H](O)[C@H](O)[C@H]3O)[C@H]12 [asperulosidic acid, Asperulosidic acid]
IC50 HT-29 cell viability [18]: 6.1 µg/mL (≈ 14.1 µM)

O=c1cc(-c2ccc(O)c(O)c2)oc2cc(O)c(O)c(O)c12 [6-hydroxyluteolin]
IC50 (α-glucosidase; [20]): 10 µM
